The text below walks through data of PubChem BioAssay (NCI).

Test systems include 786-0 renal; A498 renal; A549 NSCLC; BT-549 breast; CCRF-CEM leukemia; EKVX NSCLC; NCI-H522 lung; RXF 393 renal; SF-295 CNS; SNB-75 CNS; SR leukemia.
What all share (assay): NCI anticancer screen, dose series, 48 h

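Interpolation was linear, between the two tested concentrations surrounding the appropriate level; five concentrations were tested over 48 hours in 96-well plates. TGI denotes the concentration required for complete inhibition of growth.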

For `Nc1cc(-c2ccc(Cl)cc2)nn1-c1nc2ccccc2nc1-c1ccccc1`, the TGI in the test with 786-0 renal, in the test on A498 renal, in the test on A549 NSCLC, with BT-549 breast, in the test with CCRF-CEM leukemia and in the test on EKVX NSCLC was > 100 µM in each case. Besides, the TGI with NCI-H522 lung was > 100 µM; with RXF 393 renal, > 100 µM; in the test on SF-295 CNS, > 100 µM; in the test with SNB-75 CNS, 64.9 µM; in the test with SR leukemia, > 100 µM.

Regarding `Nc1ccc(Oc2ccc(C34CC5CC(C3)CC(c3ccc(Oc6ccc(N)cc6)cc3)(C5)C4)cc2)cc1`, the TGI in the test on 786-0 renal is > 52.1 µM; with A498 renal it was 27.3 µM; with A549 NSCLC it was > 60.7 µM; in the test with BT-549 breast, 33.6 µM; in the test on CCRF-CEM leukemia, > 100 µM; in the test with EKVX NSCLC, > 66.5 µM. Further, the TGI in the test with NCI-H522 lung is 38.7 µM; with RXF 393 renal, > 51.9 µM; with SF-295 CNS, > 56.4 µM; with SNB-75 CNS, 90.5 µM; with SR leukemia, > 100 µM.

Turning to `COC(=O)C[C@H](COCc1ccccc1)NC(=O)C[C@H](COCc1ccccc1)NC(=O)OC(C)(C)C`, the TGI in the test with 786-0 renal is 40.8 µM; in the test with A498 renal, 61.9 µM; with A549 NSCLC, 62.4 µM; in the test on BT-549 breast it was 51.9 µM; in the test on CCRF-CEM leukemia it was > 100 µM; in the test with EKVX NSCLC, 45.4 µM. In addition, the TGI with NCI-H522 lung is 54 µM; with RXF 393 renal, 63.3 µM; with SF-295 CNS, > 100 µM; in the test with SNB-75 CNS it was 61.2 µM; with SR leukemia it was > 100 µM.

Turning to `COc1cc([C@@H]2c3cc4c(cc3[C@@H](c3c(O)cc(O)c5c3O[C@H](c3ccc(O)c(O)c3)[C@H](OC(=O)c3cc(O)c(O)c(O)c3)C5)[C@H]3COC(=O)[C@H]23)OCO4)cc(OC)c1OC`, the TGI in the test on 786-0 renal is > 100 µM; in the test on A498 renal, > 100 µM; in the test with A549 NSCLC it was > 100 µM; in the test with BT-549 breast, > 100 µM; in the test on CCRF-CEM leukemia, 16.2 µM; in the test on EKVX NSCLC it was > 100 µM. For the same molecule, the TGI in the test on NCI-H522 lung is > 100 µM; in the test on RXF 393 renal it was > 100 µM; in the test with SF-295 CNS, > 41.8 µM; with SNB-75 CNS, > 100 µM; in the test on SR leukemia, 8.14 µM.
